In PubChem BioAssay (NCI):
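48-hour exposure; five concentrations; linearly interpolated endpoints. GI50 marks 50% less growth. At the TGI there is no net growth.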

Assays:
Assay in all cases: DTP human tumour cell line panel, 48 h
[1] = tested on: 786-0 renal
[2] = tested on: A498 renal
[3] = tested on: A549 NSCLC
[4] = tested on: ACHN renal
[5] = tested on: BT-549 breast
[6] = tested on: CAKI-1 renal
[7] = tested on: CCRF-CEM leukemia
[8] = tested on: COLO 205 colon
[9] = tested on: DU-145 prostate
[10] = tested on: EKVX NSCLC
[11] = tested on: HCC-2998 colon
[12] = tested on: HCT-116 colon
[13] = tested on: HCT-15 colon
[14] = tested on: HL-60(TB) leukemia
[15] = tested on: HOP-62 NSCLC
[16] = tested on: HOP-92 NSCLC
[17] = tested on: HS 578T breast
[18] = tested on: HT29 colon
[19] = tested on: IGROV1 ovarian
[20] = tested on: K-562 leukemia
[21] = tested on: KM12 colon
[22] = tested on: M14 melanoma
[23] = tested on: MALME-3M melanoma
[24] = tested on: MCF7 breast
[25] = tested on: MDA-MB-231 breast
[26] = tested on: MDA-MB-435
[27] = tested on: MOLT-4 leukemia
[28] = tested on: NCI-H226 lung
[29] = tested on: NCI-H23 lung
[30] = tested on: NCI-H460 lung
[31] = tested on: NCI-H522 lung
[32] = tested on: NCI/ADR-RES ovarian
[33] = tested on: OVCAR-4 ovarian
[34] = tested on: OVCAR-5 ovarian
[35] = tested on: OVCAR-8 ovarian
[36] = tested on: PC-3 prostate
[37] = tested on: RPMI-8226 leukemia
[38] = tested on: RXF 393 renal
[39] = tested on: SF-268 CNS
[40] = tested on: SF-295 CNS
[41] = tested on: SF-539 CNS
[42] = tested on: SK-MEL-2 melanoma
[43] = tested on: SK-MEL-28 melanoma
[44] = tested on: SK-MEL-5 melanoma
[45] = tested on: SK-OV-3 ovarian
[46] = tested on: SN12C renal
[47] = tested on: SNB-19 CNS
[48] = tested on: SNB-75 CNS
[49] = tested on: SR leukemia
[50] = tested on: SW-620 colon
[51] = tested on: T-47D breast
[52] = tested on: TK-10 renal
[53] = tested on: U251 CNS
[54] = tested on: UACC-257 melanoma
[55] = tested on: UO-31 renal

For `CCCCNNC(=O)c1ccc(-c2cccc(F)c2F)cc1`, the GI50 [1] was 3.75 µM, the TGI [1] was 18.9 µM and the GI50 [2] was 1.04 µM. For the same molecule, the TGI [2] was 2.92 µM, the GI50 [3] was 3.36 µM and the TGI [3] was 18.4 µM. It also gave a GI50 [4] of 2.3 µM, a TGI [4] of 7.06 µM and a GI50 [5] of 5.11 µM. It also gave a TGI [5] of over 100 µM, a GI50 [6] of 2.76 µM and a TGI [6] of 6.02 µM. It also gave a GI50 [7] of 3.08 µM, a TGI [7] of over 100 µM and a GI50 [8] of 1.82 µM. For the same molecule, the TGI [8] was 5.56 µM, the GI50 [9] was 2.43 µM and the TGI [9] was 43.8 µM. For the same molecule, the GI50 [10] was 3.32 µM, the TGI [10] was 56.3 µM and the GI50 [11] was 1.48 µM. It also gave a TGI [11] of 4.11 µM, a GI50 [12] of 2.57 µM and a TGI [12] of 11.4 µM. The GI50 [13] was 3.08 µM, the TGI [13] was 17 µM and the GI50 [14] was 1.07 µM. The TGI [14] was 16.1 µM, the GI50 [15] was 3.09 µM and the TGI [15] was over 100 µM. It also gave a GI50 [16] of 1.04 µM, a TGI [16] of 5.67 µM and a GI50 [17] of 2.44 µM. The TGI [17] was 82.4 µM, the GI50 [18] was 2.58 µM and the TGI [18] was over 100 µM. It also gave a GI50 [19] of 2.02 µM, a TGI [19] of 11.1 µM and a GI50 [20] of 1.29 µM. For the same molecule, the TGI [20] was over 100 µM, the GI50 [21] was 4.04 µM and the TGI [21] was 16.1 µM. The GI50 [22] was 2.93 µM, the TGI [22] was 20.8 µM and the GI50 [23] was 0.613 µM. For the same molecule, the TGI [23] was 5.28 µM, the GI50 [24] was 0.776 µM and the TGI [24] was 17.5 µM. The GI50 [25] was 5.49 µM, the TGI [25] was 34.3 µM and the GI50 [26] was 2.23 µM. For the same molecule, the TGI [26] was 8.25 µM, the GI50 [27] was 2.49 µM and the TGI [27] was over 100 µM. The GI50 [28] was 2.58 µM, the TGI [28] was 17.1 µM and the GI50 [29] was 2.39 µM. The TGI [29] was 18.2 µM, the GI50 [30] was 2.71 µM and the TGI [30] was 21.3 µM. The GI50 [31] was 2.3 µM, the TGI [31] was 20.7 µM and the GI50 [32] was 0.999 µM. The TGI [32] was 6.67 µM, the GI50 [33] was 4.03 µM and the TGI [33] was over 100 µM. The GI50 [34] was 2.02 µM, the TGI [34] was 16.7 µM and the GI50 [35] was 1.49 µM. The TGI [35] was over 100 µM, the GI50 [36] was 3.56 µM and the TGI [36] was 27.4 µM. It also gave a GI50 [37] of 0.8 µM, a TGI [37] of 7.88 µM and a GI50 [38] of 1.31 µM. It also gave a TGI [38] of 3.67 µM, a GI50 [39] of 4.26 µM and a TGI [39] of 18.7 µM. It also gave a GI50 [40] of 2 µM, a TGI [40] of 4.78 µM and a GI50 [41] of 3.19 µM. The TGI [41] was 65.6 µM, the GI50 [42] was 3.1 µM and the TGI [42] was 53.6 µM. The GI50 [43] was 2.75 µM, the TGI [43] was 63.7 µM and the GI50 [44] was 1.8 µM. For the same molecule, the TGI [44] was 3.71 µM, the GI50 [45] was 4.12 µM and the TGI [45] was 42.5 µM. The GI50 [46] was 4.29 µM, the TGI [46] was 79.9 µM and the GI50 [47] was 3.23 µM. It also gave a TGI [47] of 19.8 µM, a GI50 [48] of 0.894 µM and a TGI [48] of 8.29 µM. For the same molecule, the GI50 [49] was 1.77 µM, the TGI [49] was 57.3 µM and the GI50 [50] was 2.92 µM. It also gave a TGI [50] of 12.5 µM, a GI50 [51] of 1.14 µM and a TGI [51] of over 100 µM. The GI50 [52] was 0.959 µM, the TGI [52] was 7.9 µM and the GI50 [53] was 2.58 µM. It also gave a TGI [53] of 15.2 µM, a GI50 [54] of 1.39 µM and a TGI [54] of 31.3 µM. The GI50 [55] was 1.78 µM and the TGI [55] was 7.25 µM.
